From patent US9751861B2, “N1-(3,3,3-trifluoro-2-hydroxo-2-methylpropionyl)-piperidine derivatives as inhibitors of pyruvate dehydrogenase kinase” (MERCK PATENT GMBH, priority 2013, dated 2017)

Experiments:
PDHK2 = biological target: T1, PDHK2 (Homo sapiens, UniProt Q15119); test: Biochemical activity testing of PDHK2: PDC inactivation assay; conditions: human rec PDHK2, PDC from porcine heart, ATP 5 μM; read-out: IC50 PDHK2 (enzyme assay)
T1 construct: purchased Carna Bioscience
Outline: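 Human recombinant PDHK2 (137 nM final) preincubated 30 min at RT with porcine heart PDC (20 mU/ml) and compound in pH 7.0 phosphate buffer, then phosphorylated with 5 μM ATP for 30 min at 37 °C. Residual PDC activity read as NADH fluorescence increase (Ex 340/Em 450) over 45 min; inhibitor-free reaction as full value, 3 mM DCA as zero, IC50 derived.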

human PDHK2 (12-407) = biological target: T2, human PDHK2 (12-407) (Homo sapiens, UniProt Q15119); test: Isothermal titration calorimetry (ITC) binding; conditions: 30° C., pH 7.5
T2 construct: The human PDHK2 (12-407) was produced in E. coli; His-tag (cleaved yes); made in house; host or cells: E. coli
Outline: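 Untagged PDHK2 (12-407) from E. coli at 50 μM titrated into 5 μM compound at 30° C in pH 7.5 HEPES/KCl/MgCl2/phosphate buffer, ≤1% DMSO. One-site fit gave KA, ΔH^obs and N after heat-of-dilution correction; protein concentration referenced to a standard inhibitor and compound concentration adjusted to 1:1 stoichiometry.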

PDH-Elalpha (pSer300) = test: Cellular immunofluorescence assay in HEK293T cells; assay type: cell-based; conditions: Homo sapiens, HEK-293T, 5 hours incubation, anti-PDH-E1alpha pSer300 immunofluorescence, read-out: IC50 (cell data)
Outline: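 HEK293T cells were exposed to compound for 5 hours, then fixed, permeabilised and immunostained for PDH-Elalpha pSer300 with Hoechst counterstain, read by laser scanning cytometry. Percent effect was normalized to a pharmacological inhibitor control and fitted to dose-response curves.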

IC50 (PDHK2) | Kd (human PDHK2 (12-407)) | IC50 (PDH-Elalpha (pSer300)) | SMILES
300 to 3000 nM | < 300 nM | 300 to 3000 nM | C[C@@](O)(C(=O)N1CCC(c2ccnn2Cc2ccccc2)CC1)C(F)(F)F [Compound A38, (R)-1-[4-(2-Benzyl-2H-pyrazol-3-yl)-piperidin-1-yl]-3,3,3-trifluoro-2-hydroxy-2-methyl-propan-1-one]
< 300 nM | < 300 nM | 3000 to 50000 nM | C[C@@](O)(C(=O)N1CCC(n2ccnc2-c2ccccc2)CC1)C(F)(F)F [Compound A61, (R)-3,3,3-Trifluoro-2-hydroxy-2-methyl-1-[4-(2-phenyl-imidazol-1-yl)-piperidin-1-yl]-propan-1-one]
300 to 3000 nM | 300 to 3000 nM | 3000 to 50000 nM | C[C@@](O)(C(=O)N1CCC(n2c(-c3ccccc3F)n[nH]c2=O)CC1)C(F)(F)F [Compound A54, 5-(2-Fluoro-phenyl)-4-[1-((R)-3,3,3-trifluoro-2-hydroxy-2-methyl-propionyl)piperidin-4-yl]-2,4-dihydro-[1,2,4]triazol-3-one]
300 to 3000 nM | 300 to 3000 nM | 3000 to 50000 nM | C[C@@](O)(C(=O)N1CCC(c2ccnn2C2CCOCC2)CC1)C(F)(F)F [Compound A116, (R)-3,3,3-Trifluoro-2-hydroxy-2-methyl-1-{4-[2-(tetrahydro-pyran-4-yl)-2H-pyrazol-3-yl]-piperidin-1-yl}-propan-1-one]
300 to 3000 nM | < 300 nM | 3000 to 50000 nM | Cc1csc(-n2nccc2C2CCN(C(=O)[C@@](C)(O)C(F)(F)F)CC2)n1 [Compound A86, (R)-3,3,3-Trifluoro-2-hydroxy-2-methyl-1-[4-[2-(4-methylthiazol-2-yl)-2H-pyrazol-3-yl]-1-piperidyl]propan-1-one]
